Results: patent publication US20060009425A1, “Oral formulations of paricalcitol” (priority 2004, published 2006)
Where two headings read alike, the source gives them in different places.

Key:
[1] = Phase 3 once daily study, safety (Example 8)
[2] = Single and multiple dose pharmacokinetics, moderate to severe chronic renal impairment (Example 4, Table 23); format: in vivo, human; design: AUC0-24 on Study Day 8 vs. AUC0-∞ on Study Day 1, Point Estimate / AUC0-24 on Study Day 8 vs. AUC0-∞ on Study Day 1, 95% Confidence Interval: unit not given beside the values; settings: for Cmax / Tmax / half-life / AUC(0-t) / AUC(0-inf) / fraction unbound / concentration at 24 h: human, plasma, oral; for AUC(0-t): read-out: AUC0-24; for concentration at 24 h: Study Day 9, read-out: trough concentration 24 h post dose on Study Day 8
Procedure: Methodology: This was a Phase 1, open-label, single and multiple-dose, multi-center study. A sufficient number of subjects were screened to have approximately 15 subjects with moderate renal impairment (CKD Stage 3) (Group 1, Glomerular Filtration Rate (GFR) of 30-60 mL/min) and approximately 15 subjects with severe renal impairment (CKD Stage 4) (Group 2, GFR <30 mL/min, not requiring dialysis) enrolled in the study. The subjects in moderate renal impairment group received 4 μg paricalcitol capsule on Study Day 1, and 4 μg QD for 6 doses over Study Days 3-8. The subjects in severe renal impairment group received 3 μg paricalcitol capsule on Study Day 1 and 3 μg QD for 6 doses over Study Days 3-8. Each dose of study was taken orally with approximately 180 mL of water at 0800, 30 minutes after breakfast was served.
Plasma concentrations of paricalcitol were determined using a validated liquid chromatography method with tandem mass spectrometric assay method at Abbott Laboratories, Ill.
Pharmacokinetic: Values for the pharmacokinetic parameters of paricalcitol, including the maximum observed plasma concentration (Cmax), the time to Cmax(Tmax), the terminal phase elimination rate constant (β), half life (t1/2), area under the plasma concentration-time curve (AUC), apparent total clearance (CL/F), and apparent volume of distribution (Vdβ/F) were determined using noncompartmental methods. Values of these parameters were determined after both single (first) dose (Study Day 1) and multiple doses (Study Day 8). In addition, minimum observed plasma concentration (Cmin), accumulation index (AI), and degree of fluctuation (DFL) after multiple doses were determined for the dose on Study Day 8 (steady state).
Pharmacokinetic: Point estimates and the corresponding 95% confidence intervals were obtained for central values of the pharmacokinetic parameters for each of the renal impairment groups. Two-sample t-test was performed to compare the pharmacokinetic parameters across the two renal impairment groups on each of Study Days 1 and 8. […] Within the framework of the analysis, the mean trough concentration values on Study Days 6, 7 and 8 were each compared to that at 24 h post Study Day 8 dose.
An analysis of variance (ANOVA) was performed on Tmax, β, and the logarithms of AUC and Cmax to compare the single-dose and steady-state data for each of the renal impairment groups. The same test was also performed for each group for the difference between the natural logarithm of the AUC0-24 on Day 8 and the natural logarithm of the AUC0-∞ on Study Day 1. Then the point estimate and 95% confidence interval for the ratio of the central values (the central value of the AUC0-24 on Study Day 8 to that of the AUC0-∞ on Study Day 1) were obtained by exponentiating the corresponding point estimate for the difference.
Paricalcitol capsules are under development for the prevention and treatment of secondary hyperparathyroidism in chronic kidney disease (CKD). The aim of this open-label, single and multiple dose, multi-center study was to evaluate the safety, and pharmacokinetics (PK) of paricalcitol in CKD Stage 3 (single 4 μg dose on Day 1 and 4 μg QD from Days 3-8) and CKD Stage 4 (single 3 μg dose on Day 1 and 3 μg QD from Days 3-8) subjects.

[3] = 3 ug, severe renal impairment, 3 μg QD, Study Day 8
[4] = 3 ug, severe renal impairment, 3 μg, Study Day 1
[5] = 4 ug, moderate renal impairment, 4 μg QD, Study Day 8
[6] = 4 ug, moderate renal impairment, 4 μg, Study Day 1
[7] = 4 μg, moderate renal impairment
[8] = moderate renal impairment, 4 μg QD, Study Day 8
[9] = moderate renal impairment, 4 μg, Study Day 1
[10] = severe renal impairment, 3 μg QD, Study Day 8
[11] = severe renal impairment, 3 μg, Study Day 1

In the case of C[C@H](/C=C/[C@H](C)C(C)(C)O)[C@H]1CC[C@H]2/C(=C/C=C3C[C@@H](O)C[C@H](O)C3)CCC[C@]12C [Paricalcitol, 19-nor-1α,3β,25-trihydroxy-9,10-secoergosta-5(Z); 7(E),22(E)-triene], the safety and tolerability ([1]; CKD (Stages 3 and 4) subjects) is reported as “safe and well tolerated”, the “mean calcium values, range over scheduled visits” value ([1]; Treatment Phase) is reported as 9.24 to 9.54 mg/dL and the “subjects reporting serious adverse events” value ([1]; Treatment and Follow-Up Phases) is reported as 7 subjects. The deaths ([1]; hepatic encephalopathy, considered not related to study drug) was 1 subject, the “adverse event incidence: abdominal pain” value ([1]; in vivo) was 9% and the “adverse event incidence: accidental injury” value ([1]; in vivo) was 17%. The “adverse event incidence: allergic reaction” value ([1]; in vivo) was 9%, the “adverse event incidence: cough increased” value ([1]; in vivo) was 9% and the “adverse event incidence: diarrhea” value ([1]; in vivo) was 11%. The “adverse event incidence: edema” value ([1]; in vivo) was 11%, the “adverse event incidence: nausea” value ([1]; in vivo) was 9% and the “adverse event incidence: pharyngitis” value ([1]; in vivo) was 14%. The “adverse event incidence: rash” value ([1]; in vivo) was 11%, the “adverse event incidence: vomiting” value ([1]; in vivo) was 11% and the “phosphorus, mean change from baseline to Final Visit” value ([1]; in vivo) was -0.13 mg/dL. The “serum calcium, mean change from baseline to Last On-Treatment Visit” value ([1]; in vivo) was 0.21 mg/dL, the “subjects terminated prematurely due to adverse events” value ([1]; in vivo) was 4 subjects and the “subjects who developed clinically meaningful hypercalcemia (at least 2 consecutive calcium values >10.5 mg/dL)” value ([1]; in vivo) was 0/35. The “adverse events considered not related to study drug administration” value ([1]; once daily, 24 weeks) was 67%, the “adverse events mild or moderate in severity” value ([1]; once daily, 24 weeks) was 93% and the “subjects with treatment-emergent adverse events” value ([1]; once daily, 24 weeks) was 91%. The Cmax [2, 3] was 0.097 ± 0.023 ng/mL, the Tmax [2, 3] was 9.1 ± 5.5 h and the half-life ([2]; 3 ug, severe renal impairment, 3 μg QD, Study Day 8, harmonic mean ± pseudo-standard deviation, read-out: t1/2 (converted)) was 22.9 ± 5.63 h. It also gave an AUC(0-t) [2, 3] of 1.75 ± 0.421 ng·h/mL, an AUC(0-inf) [2, 4] of 2.13 ± 0.733 ng·h/mL and a Cmax [2, 4] of 0.065 ± 0.012 ng/mL. For the same compound, the Tmax [2, 4] was 5.9 ± 3.6 h, the half-life ([2]; 3 ug, severe renal impairment, 3 μg, Study Day 1, harmonic mean ± pseudo-standard deviation, read-out: t1/2 (converted)) was 19.7 ± 7.19 h and the AUC(0-t) [2, 4] was 1.02 ± 0.23 ng·h/mL. For the same compound, the fraction unbound ([2]; 3 μg, severe renal impairment) was 0.0008 ± 0.0002, the concentration at 24 h ([2]; 3 μg, severe renal impairment) was 0.057 ± 0.014 ng/mL and the Cmax [2, 5] was 0.155 ± 0.057 ng/mL. For the same compound, the Tmax [2, 5] was 4.2 ± 1.9 h, the half-life ([2]; 4 ug, moderate renal impairment, 4 μg QD, Study Day 8, harmonic mean ± pseudo-standard deviation, read-out: t1/2 (converted)) was 15.5 ± 3.21 h and the AUC(0-t) [2, 5] was 2.22 ± 0.701 ng·h/mL. For the same compound, the AUC(0-inf) [2, 6] was 2.42 ± 0.614 ng·h/mL, the Cmax [2, 6] was 0.113 ± 0.036 ng/mL and the Tmax [2, 6] was 4.7 ± 2.5 h. The half-life ([2]; 4 ug, moderate renal impairment, 4 μg, Study Day 1, harmonic mean ± pseudo-standard deviation, read-out: t1/2 (converted)) was 16.8 ± 2.65 h, the AUC(0-t) [2, 6] was 1.45 ± 0.407 ng·h/mL and the fraction unbound [2, 7] was 0.0008 ± 0.0005. The concentration at 24 h [2, 7] was 0.057 ± 0.019 ng/mL, the half-life ([2]; moderate and severe renal impairment (CKD Stage 3 and 4) subjects, read-out: mean half-life) was 16 to 23 h and the “steady state essentially reached by” value ([2]; moderate and severe renal impairment subjects, QD dosing) was no more than 6 Study Day. For the same compound, the “AUC0-24 on Study Day 8 vs. AUC0-∞ on Study Day 1, 95% Confidence Interval” value ([2]; moderate renal impairment) was 0.8150-0.9896, the “AUC0-24 on Study Day 8 vs. AUC0-∞ on Study Day 1, Point Estimate” value ([2]; moderate renal impairment) was 0.8981 and the CL/F [2, 8] was 2.014 ± 0.774 L/h. For the same compound, the Cmax/Dose [2, 8] was 0.039 ± 0.014 ng/mL/µg, the Cmin [2, 8] was 0.047 ± 0.018 ng/mL and the “DFL (degree of fluctuation)” value [2, 8] was 116.77 ± 35.24%. The Vdβ/F [2, 8] was 46.76 ± 19.35 L, the β [2, 8] was 0.045 ± 0.009 h−^1 and the CL/F [2, 9] was 1.766 ± 0.505 L/h. The Cmax/Dose [2, 9] was 0.028 ± 0.009 ng/mL/µg, the Vdβ/F [2, 9] was 43.72 ± 14.45 L and the β [2, 9] was 0.041 ± 0.007 h−^1. For the same compound, the pre-dose trough concentration ([2]; moderate renal impairment, Study Day 6) was 0.050 ± 0.016 ng/mL, the pre-dose trough concentration ([2]; moderate renal impairment, Study Day 7) was 0.053 ± 0.014 ng/mL and the pre-dose trough concentration ([2]; moderate renal impairment, Study Day 8) was 0.053 ± 0.019 ng/mL. For the same compound, the “AUC0-24 on Study Day 8 vs. AUC0-∞ on Study Day 1, 95% Confidence Interval” value ([2]; severe renal impairment) was 0.7612-0.9227, the “AUC0-24 on Study Day 8 vs. AUC0-∞ on Study Day 1, Point Estimate” value ([2]; severe renal impairment) was 0.8380 and the CL/F [2, 10] was 1.751 ± 0.388 L/h. The Cmax/Dose [2, 10] was 0.032 ± 0.008 ng/mL/µg, the Cmin [2, 10] was 0.049 ± 0.010 ng/mL and the “DFL (degree of fluctuation)” value [2, 10] was 64.86 ± 17.79%. For the same compound, the Vdβ/F [2, 10] was 61.61 ± 20.34^¥ L, the β [2, 10] was 0.030 ± 0.007 h−^1 and the CL/F [2, 11] was 1.517 ± 0.359 L/h. For the same compound, the Cmax/Dose [2, 11] was 0.022 ± 0.004 ng/mL/µg, the Vdβ/F [2, 11] was 46.40 ± 12.45 L and the β [2, 11] was 0.035 ± 0.013 h−^1. For the same compound, the pre-dose trough concentration ([2]; severe renal impairment, Study Day 6) was 0.051 ± 0.011 ng/mL, the pre-dose trough concentration ([2]; severe renal impairment, Study Day 7) was 0.050 ± 0.015 ng/mL and the pre-dose trough concentration ([2]; severe renal impairment, Study Day 8) was 0.056 ± 0.012 ng/mL.
